According to US10450364B2 (priority 2017, dated 2019):
Where “and” joins values, the source holds several entries; their conditions need not be identical. Equal entries are not always repeated. Where a SMILES comes first, the peptide text is derived from it. Bridges are numbered along the chain shown (N, C = ends). [ ]: non-standard residue; d: D form. The star is where a group is joined. Ileψ(thiazoline)Cys = CC[C@H](C)[C@H](N)C1=N[C@H](C(=O)*)CS1; dOrn = NCCC[C@@H](N)C(=O)O

How the values were obtained:
Clostridium perfringens [1] = assay type: in vivo, broiler chickens; conditions: subclinical NE
Clostridium perfringens [2] = system: Clostridium perfringens; set-up: species or system broiler chickens (Cobb 500); conditions: in vivo
C. perfringens = system: C. perfringens; set-up: species or system broiler chickens (Cobb 500); conditions: in vivo
[3] = raw data of individual birds, 0.5% egg powder, cells marked * removed as outlier

Row | Compound | Weight gain (g) day 0-6 post challenge, Average (Clostridium perfringens [1]; group average, 0.5% egg powder) [g] | Weight gain (g) day 0-11 post challenge, Average (Clostridium perfringens [1]; group average, 0.5% egg powder) [g] | Lesion Score - day 2 post challenge, Average (Clostridium perfringens [1]; group average, egg powder 0.5% in feed (Vir 20 g/ton), scale 0 to 4) | Weight gain (g) day 0-6 post challenge (Clostridium perfringens [1]; [3]) | Weight gain (g) day 0-11 post challenge (Clostridium perfringens [1]; [3]) | Lesion Score - day 2 post challenge (Clostridium perfringens [1]; raw data of individual birds, egg powder 0.5% in feed (Vir 20 g/ton), scale 0 (none) to 4 (high)) | % NE Mortality (Clostridium perfringens [2]) [bcde %] | Feed Intake D 0-28 (Clostridium perfringens [2]) [bc] | Lesion Score (0-3) (Clostridium perfringens [2]) [bc] | Weight Gain D 0-28 (Clostridium perfringens [2]) [bcd] | % NE Mortality (C. perfringens) [bc %] | Feed Intake D 0-28 (C. perfringens) [bcd] | Lesion Score (0-3) (C. perfringens) [bc] | Weight Gain D 0-28 (C. perfringens) [bcd]
1 | Virginiamycin | 226 | 570 | 0.5 | 267 g and 211 g (2×) and 256 g and 252 g and 170 g and 213 g and 289 g and 162 g (2×) and 229 g and 241 g and 203 g and 157 g and 195 g and 238 g and 321 g and 233 g and 319 g and 182 g and 239 g | 618 g and 554 g and 520 g and 540 g and 467 g and 479 g and 544 g and 566 g and 420 g and 552 g and 607 g and 686 g and 568 g and 723 g and 709 g | 1 (3×) and 0 (3×) | – | – | – | – | – | – | – | –
2 | CC[C@H](C)[C@H](N)C1=N[C@H](C(=O)N[C@@H](CC(C)C)C(=O)N[C@H](CCC(=O)O)C(=O)N[C@H](C(=O)N[C@H]2CCCCNC(=O)[C@H](CC(N)=O)NC(=O)[C@@H](CC(=O)O)NC(=O)[C@H](Cc3cnc[nH]3)NC(=O)[C@@H](Cc3ccccc3)NC(=O)[C@H]([C@@H](C)CC)NC(=O)[C@@H](CCCN)NC2=O)[C@@H](C)CC)CS1 [bacitracin] ({Ileψ(thiazoline)Cys}-L[dE]IK[dOrn]I[dF]H[dD]N; lactam 4-C) | – | – | – | – | – | – | 10.9 | 8.040 | 1.0 | 0.590 | 9.4 | 6.708 | 1.3 | 0.648
